ChEMBL document CHEMBL1143292, “A small molecule inhibitor selective for a variant ATP-binding site of the chaperonin GroEL” (Bioorg Med Chem Lett, 2009)
Calls of active or inactive are those of the source.

What was measured:
[1] = system: Chaperonin GroEL (Escherichia coli (strain K12)), P0A6F5 [I493C]; assay: Inhibition of Escherichia coli 60 kDa chaperonin groEL I493C mutant
Escherichia coli [2] = assay: Inhibition of Escherichia coli 60 kDa chaperonin groEL ATPase activity assessed as inorganic phosphate release at 50 uM by Malachite green complex formation assay
[3] = system: Chaperonin GroEL (Escherichia coli (strain K12)), P0A6F5 [I493C]; assay: Inhibition of Escherichia coli 60 kDa chaperonin groEL I493C mutant ATPase activity assessed as inorganic phosphate release at 50 uM by Malachite green complex formation assay
[4] = system: Chaperonin GroEL (Escherichia coli (strain K12)), P0A6F5 [I493C]; assay: (§1) Inhibition of Escherichia coli 60 kDa chaperonin groEL refolding activity assessed as recovered enzyme activity of bovine rhodanese at 50 uM
Escherichia coli [5] = assay: as §1
[6] = system: Chaperonin GroEL (Escherichia coli (strain K12)), P0A6F5 [I493C]; assay: (§2) Inhibition of Escherichia coli 60 kDa chaperonin groEL refolding activity assessed as recovered enzyme activity of pig heart malate dehydrogenase at 50 uM
Escherichia coli [7] = assay: as §2

Measured: Activity

Chaperonin GroEL (Escherichia coli (strain K12)), P0A6F5 [I493C], sequence (P0A6F5 whole entry I493C): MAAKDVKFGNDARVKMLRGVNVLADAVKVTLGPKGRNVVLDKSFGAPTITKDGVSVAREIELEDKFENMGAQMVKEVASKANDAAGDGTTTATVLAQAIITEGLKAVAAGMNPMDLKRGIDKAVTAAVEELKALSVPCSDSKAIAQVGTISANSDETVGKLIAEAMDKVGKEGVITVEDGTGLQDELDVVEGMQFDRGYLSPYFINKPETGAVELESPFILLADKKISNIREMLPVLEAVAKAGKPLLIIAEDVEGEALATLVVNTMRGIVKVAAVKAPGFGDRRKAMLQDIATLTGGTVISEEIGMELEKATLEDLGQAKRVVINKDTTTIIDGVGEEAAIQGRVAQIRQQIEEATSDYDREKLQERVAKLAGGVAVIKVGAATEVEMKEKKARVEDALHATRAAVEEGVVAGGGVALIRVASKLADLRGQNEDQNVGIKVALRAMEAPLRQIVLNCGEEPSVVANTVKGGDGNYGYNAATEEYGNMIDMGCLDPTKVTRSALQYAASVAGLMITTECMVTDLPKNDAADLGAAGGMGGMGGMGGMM

CC(C)(C)n1nc(-c2ccc(NC(=O)C3CCCC3)cc2)c2c(N)ncnc21
active: all assays above
